“Also recorded” adds a separate entry of the source.
Legend:
in vitro = assay type: cell-based; conditions: female, C57BL/6J, mouse
Description: Cell Culture of Bone Marrow-Derived Macrophages. […] After 7 days, the cells were transferred to tissue culture 96 well plates (Corning) at a density of 100,000 in 20 μL of medium and allowed to settle overnight for subsequent assays.
Lactate Dehydrogenase Release (LDH) Toxicity Assay. For determination of cytotoxicity, mature bone marrow-derived macrophages (BMDM) were treated with 20 μL of the lipids (concentrations denoted in figure legend) diluted in 20 mM HEPES buffer, with HEPES buffer as negative control and 10% Triton X-100 as positive control. After 24 hours, the 96 well plates were centrifuged at 200×g for 5 minutes to remove debris and 100 μL of media was transferred to an untreated flat-bottom 96 well plate. Next, 100 μL of LDH reaction reagent purchased from Cayman Chemical (Ann Arbor, MI) was added to each and allowed to sit for 30 minutes at 37° C. Absorbance at 490 and 680 nm were measured using a BioTek Synergy H1 plate reader and the data were processed using Microsoft Excel. Mean values from triplicates are shown for one of two independent experiments.

C57BL/6J mice = test: In vivo toxicity of cationic lipid nanoparticles (ALT, IL-6, SCr, mortality)
[1] = 20 mM lipid, i.p., versus baseline

SMILES: CCCCCCCCCCCCN(CCCCCCCCCCCC)c1nc(NCCCN)nc(NCCCN)n1 [Lipid 3]
- IC50 at 24 h (in vitro): 111 µM
- interleukin 6 (IL-6) (C57BL/6J mice; [1]): trended upward
- serum alanine aminotransferase (ALT) (C57BL/6J mice; [1]): trended upward
- in vivo toxicity (overall) (C57BL/6J mice; 100 μL cationic lipid nanoparticles i.p., listed as TZ3): comparable toxicity to DOTAP; also recorded: does not induce significant in vivo toxicity
